Consider one compound from US7910588B2, “5-HT7 receptor antagonists” (Eli Lilly and Company, priority 2007, dated 2011).

One may read the Ki as a dissociation constant, usually derived from enzyme kinetics or from competition with a known ligand. As usually defined, the Kb is the affinity of an antagonist, worked out from how it opposes an agonist. Low values mean higher antagonist affinity, high ones lower antagonist affinity.

For one assay, the target named is T1, 5-HT2A (Homo sapiens, UniProt P28223).
T1 construct: expressed in transfected cells
The experiment in a line: Radioligand binding assay, 5-HT2A. How it is done: [^3H] […] The reactions are incubated at room temperature for 3 hr. and then counted in a Trilux Microbeta™ scintillation counter to detect receptor-bound radioligand. Binding data are analyzed by computer-assisted 4 parameter fit analysis (ID Business Solutions Ltd, Guildford, Surrey, UK). […]
Affinity for other serotonin receptor subtypes as well as for alpha 1 & 2 adrenergic receptors can readily be determined by modification of the above described radioligand receptor binding assay using membranes derived from cells stably expressing the desired receptor subtype including the 5-HT1A, 5-HT1B, and 5-HT1D subtypes, as well as the 5-HT2A, 5-HT2B, 5-HT2C, 5-HT4, 5-HT7, and 5-HT6 receptor subtypes. […]

For a further assay, the target named is T2, 5-HT7 receptor (Homo sapiens, UniProt P34969).
T2 construct: expressed in transfected cells
Kind of assay: Functional antagonist assay: measurement of cAMP formation. The class given is cell-based. On the procedure:
For cAMP functional assays, the 5-HT7-expressing cells from above are grown in 150 cm^2 flasks and processed essentially as follows. The media is aspirated from the flasks and cells are washed with 1 mL PBS. The cells are released from the flask surface using enzyme free cell dissociation solution (Specialty media (www.chemicon.com) CAT#S-004-B) and resuspended in complete media. A sample of the cells is counted and the remainder is centrifuged as above for 3 min. The resulting cell pellet is resuspended in PBS at a concentration of 1×10^6 cells per mL and used directly in the cAMP assay as described.
The 5-HT7 receptor is functionally coupled to a G-protein as measured by the ability of serotonin and serotonergic drugs to stimulate cAMP production in CHO cells transfected with the 5-HT7 receptor. (Ruat, et al., Proceedings of the National Academy of Sciences (USA), 90:8547-8551, 1993.) Accordingly, functional receptor activity can be measured by measuring adenylate cyclase activity using a commercially available cell-based, homogeneous, time resolved fluorescence assay kit, as for example the kit produced by Cisbio-US, Inc. (Bedford, Mass.). Essentially, and using the protocol and reagents provided by the manufacturer, approximately 20,000 human 5-HT7 receptor-expressing AV-12 cells (as described above) are used with test compound dose concentrations in the range described for the binding assay. […] A cAMP standard curve is also run in every experiment. After the assay plates are read in an Envision™ instrument (Perkin-Elmer, Wellesley Mass.), the data are normalized to the standard curve and converted to percent inhibition for data analysis as described above for the receptor binding assay results. The Kb (nM) is calculated as a measure of the antagonist potency of the compound. Preferred compounds are those having percent inhibition >75%. Still other preferred compounds are those having Kb<50 nM.
On the technique in general: cAMP levels reflect the balance of adenylyl cyclase and phosphodiesterase activity.

T2 sequence (P34969 whole entry): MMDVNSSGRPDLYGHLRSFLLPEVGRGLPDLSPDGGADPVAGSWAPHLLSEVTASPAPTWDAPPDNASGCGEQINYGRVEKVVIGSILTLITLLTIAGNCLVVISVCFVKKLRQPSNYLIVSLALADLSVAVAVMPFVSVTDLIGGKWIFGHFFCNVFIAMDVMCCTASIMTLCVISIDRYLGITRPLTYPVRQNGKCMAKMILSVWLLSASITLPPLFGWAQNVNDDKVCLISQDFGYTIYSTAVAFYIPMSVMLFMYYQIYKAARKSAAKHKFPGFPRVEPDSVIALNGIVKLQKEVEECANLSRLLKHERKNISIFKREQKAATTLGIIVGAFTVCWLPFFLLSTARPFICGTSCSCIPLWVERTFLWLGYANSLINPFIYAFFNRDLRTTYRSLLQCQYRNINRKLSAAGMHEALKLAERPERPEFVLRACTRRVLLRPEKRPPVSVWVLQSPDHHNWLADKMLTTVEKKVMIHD
T1 sequence (P28223 whole entry, species assumed): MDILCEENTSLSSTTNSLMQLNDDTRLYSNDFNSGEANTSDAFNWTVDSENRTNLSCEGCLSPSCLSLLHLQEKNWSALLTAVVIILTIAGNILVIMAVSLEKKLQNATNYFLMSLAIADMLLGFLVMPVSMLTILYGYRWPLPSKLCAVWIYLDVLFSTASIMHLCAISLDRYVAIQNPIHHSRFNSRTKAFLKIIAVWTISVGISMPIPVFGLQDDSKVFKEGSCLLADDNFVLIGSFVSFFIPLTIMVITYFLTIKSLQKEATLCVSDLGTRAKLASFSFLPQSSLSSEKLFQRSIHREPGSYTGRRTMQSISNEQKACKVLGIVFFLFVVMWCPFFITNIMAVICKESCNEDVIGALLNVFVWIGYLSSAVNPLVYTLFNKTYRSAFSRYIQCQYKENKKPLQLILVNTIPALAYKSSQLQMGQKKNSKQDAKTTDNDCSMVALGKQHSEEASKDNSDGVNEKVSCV

Consider `CCn1ncc(CN2CCN(c3cccnc3N3CCC(O)CC3)CC2)c1C.Cl` [Example 1, 3′-[4-(1-Ethyl-5-methyl-1H-pyrazol-4-ylmethyl)-piperazin-1-yl]-3,4,5,6-tetrahydro-2H-[1,2]bipyridinyl-4-ol hydrochloride], for which the Ki at 5-HT2A is > 7470 nM. The antagonist dissociation constant (Kb) at 5-HT7 receptor (antagonist potency, cAMP formation in 5-HT7 receptor-expressing AV-12 cells) was ~2.97 nM. Further, at 5-HT7 receptor (cAMP formation in 5-HT7 receptor-expressing AV-12 cells), the antagonist character result is reported as “full antagonist”. Also, the inhibition entry against 5-HT7 receptor (percent inhibition of cAMP formation in 5-HT7 receptor-expressing AV-12 cells) is on record as “about 108%”.
